Source: PMC5840146, “Structure-Activity Relationship Analysis of 3-Phenylcoumarin-Based Monoamine Oxidase B Inhibitors” (Frontiers in Chemistry, 2018)
“And” between values parts separate entries of the source, which are not always exact repeats. Equal entries are not always repeated.

Tests used:
MAO-A = target: T1, MAO-A (Homo sapiens, UniProt P21397); assay: continuous spectrophotometric MAO-A inhibition assay; format: biochemical; settings: for MAO-A inhibition %: 100 µM, 1h
T1 construct: purchased Sigma-Aldrich
T1 sequence (P21397 1-527): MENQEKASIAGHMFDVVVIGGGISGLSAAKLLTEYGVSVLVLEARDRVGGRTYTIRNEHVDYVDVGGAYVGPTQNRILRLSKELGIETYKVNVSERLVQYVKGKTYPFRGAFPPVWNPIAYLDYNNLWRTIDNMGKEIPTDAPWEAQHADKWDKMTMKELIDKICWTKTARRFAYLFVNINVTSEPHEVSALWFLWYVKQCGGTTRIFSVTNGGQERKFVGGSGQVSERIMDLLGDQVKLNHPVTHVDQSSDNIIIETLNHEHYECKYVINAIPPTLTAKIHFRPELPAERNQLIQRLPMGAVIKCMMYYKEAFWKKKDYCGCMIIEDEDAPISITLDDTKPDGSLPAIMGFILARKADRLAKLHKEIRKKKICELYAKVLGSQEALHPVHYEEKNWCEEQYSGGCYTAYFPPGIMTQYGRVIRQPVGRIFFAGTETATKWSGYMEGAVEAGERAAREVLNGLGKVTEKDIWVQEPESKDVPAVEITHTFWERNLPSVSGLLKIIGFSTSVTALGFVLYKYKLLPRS
Protocol: (§1) Both monoamine oxidase A (MAO-A) and B (MAO-B) protein and the reagents for the chromogenic solution of vanillic acid (4-hydroxy-3-methoxylbenzoic acid, 97% purity), 4-aminoantipyrine (reagent grade), horseradish peroxidase and the substrate tyramine hydrochloride (minimum 99% purity) as well as the potassium phosphate buffer, which was prepared using potassium phosphate dibasic trihydrate (≥99% ReagentPlus™) and potassium phosphate monobasic (minimum 98% purity, molecular biology tested), were purchased from Sigma-Aldrich (St. Louis, MO, USA) for the spectrophotometric assay.
(§2) The protocol for continuous spectrophotometric assay (Holt et al., [1997]) was followed in the activity measurements. The assay was performed in 0.2 M potassium phosphate buffer pH 7.6 on 96-well plates (Nunc™ 96F microwell plate without a lid, Nunc A/S, Roskilde, DK) in 200 μl total volume. The chromogenic solution containing 1 mM vanillic acid, 500 μM 4-aminoantipyrine and 8 U/ml horseradish peroxidase in 0.2 M potassium phosphate buffer pH 7.6 was mixed anew for each measurement. 5 mM tyramine solution was used as the substrate. In order to determine the activity of both MAO-B and MAO-A, concentration series as duplicates were prepared. The protein was combined with the chromogenic solution and incubated 30 min at 37°C. The background signal was measured using multilabel reader (Victor^TM X4, 2030 Multilabel Reader, PerkinElmer, Waltham, MA, USA) at A490 before reaching the total 200 μl volume by adding 20 μl of tyramine to final concentration of 0.5 mM on the plate. As a result, the final concentration of the chromogenic solution on the plate was 250 μM vanillic acid, 125 μM 4-aminoantipyrine and 2 U/ml horseradish peroxide. After adding the substrate, the plates were measured 300 times every 15 s using 1 s exposure time. The device was set to 37°C for the duration of the experiment.
(§3) The experiment conditions should produce absorbance change of ~0.35 (Holt et al., [1997]). […] The same wide panel of coumarin derivatives was additionally used to analyze the MAO-A inhibition at 100 μM (Table 1, Supplementary Table S1).
(§4) The measured data was then fitted on a curve using non-linear regression with the equation for log[inhibitor] vs. response. The IC50 values were therefore determined based on the curve fit. The fitted curves are shown on –log scale in Supplementary Figures S1, S2.

MAO-B [1] = target: T2, MAO-B (Homo sapiens, UniProt P27338); assay: continuous spectrophotometric MAO-B inhibition assay; format: biochemical; settings: for MAO-B inhibition %: 10 µM, 2h; for LiPE: LiPE = pIC50 - QPlogPo/w, new analogs and pargyline; for IC50: dilution series 50 μM to 1 nM, duplicates, read-out: MAO-B inhibition IC50
T2 construct: purchased Sigma-Aldrich
T2 sequence (P27338 1-520): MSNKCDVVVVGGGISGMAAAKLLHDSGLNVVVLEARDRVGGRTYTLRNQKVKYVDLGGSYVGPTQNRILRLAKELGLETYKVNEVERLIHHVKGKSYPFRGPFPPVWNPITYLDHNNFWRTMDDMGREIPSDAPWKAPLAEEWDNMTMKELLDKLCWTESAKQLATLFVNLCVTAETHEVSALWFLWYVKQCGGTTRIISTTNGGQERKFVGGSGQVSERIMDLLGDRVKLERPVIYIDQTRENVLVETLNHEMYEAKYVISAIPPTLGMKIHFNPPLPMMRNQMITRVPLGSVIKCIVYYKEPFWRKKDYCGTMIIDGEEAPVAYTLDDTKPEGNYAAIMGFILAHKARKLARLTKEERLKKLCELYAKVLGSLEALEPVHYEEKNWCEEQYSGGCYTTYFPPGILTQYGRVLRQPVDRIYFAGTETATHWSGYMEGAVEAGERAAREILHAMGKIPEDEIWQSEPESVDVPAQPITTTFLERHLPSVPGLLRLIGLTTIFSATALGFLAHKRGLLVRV
Protocol: as §1, §2, §3, §4

ERα = target: T3, ERα (Homo sapiens, UniProt P03372); assay: PolarScreen ER Alpha Competitor Assay (fluorescence polarization); format: binding; settings: for ER inhibition %: 10 μM
T3 construct: purchased Life Technologies
T3 sequence (P03372 1-595): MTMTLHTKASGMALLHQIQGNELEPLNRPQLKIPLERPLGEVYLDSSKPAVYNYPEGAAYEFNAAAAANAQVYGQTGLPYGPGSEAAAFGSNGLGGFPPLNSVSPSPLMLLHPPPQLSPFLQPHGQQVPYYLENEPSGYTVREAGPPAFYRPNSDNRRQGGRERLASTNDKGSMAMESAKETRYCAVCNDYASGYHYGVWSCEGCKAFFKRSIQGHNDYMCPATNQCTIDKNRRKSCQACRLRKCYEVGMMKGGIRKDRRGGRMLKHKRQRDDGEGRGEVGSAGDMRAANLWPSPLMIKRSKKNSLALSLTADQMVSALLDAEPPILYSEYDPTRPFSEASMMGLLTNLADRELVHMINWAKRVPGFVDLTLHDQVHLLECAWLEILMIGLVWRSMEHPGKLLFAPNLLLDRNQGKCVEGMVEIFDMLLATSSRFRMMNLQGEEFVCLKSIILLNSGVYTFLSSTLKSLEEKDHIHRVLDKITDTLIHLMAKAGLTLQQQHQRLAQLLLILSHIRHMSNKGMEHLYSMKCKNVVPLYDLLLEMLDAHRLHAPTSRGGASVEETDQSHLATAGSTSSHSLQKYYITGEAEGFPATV
Protocol: The pIC50 values for the derivatives (Table 1, Supplementary Table S1) were measured with green PolarScreen™ ER Alpha Competitor Assay (Life Technologies, CA, The United States of America) kit, following the manufacturer protocol as previously described (Niinivehmas et al., [2016]). The final concentration of the compounds ranged from 0.0007 to 10 000 nM in the dilution series which were performed as duplicates. The molecules were combined with 25 nM ERα and 4.5 nM fluormone in the assay buffer and placed on black low volume 384-well assay plate with NBS surface (Corning, NY, The United States of America). After mixing the assay plate, it was incubated for 2 h in RT. The fluorescence polarization was measured using excitation wave length 485 and emission wave length 535 with bandwidths of 25/20 nm on a 2104 EnVision® Multilabel Plate Reader which had EnVision Workstation version 1.7 (PerkinElmer, MA, The United States of America).

MAO-B [2] = target: T2, MAO-B; assay: MAO-B inhibition of prior 3-phenylcoumarins (literature data); format: biochemical; settings: LiPE = pIC50 - QPlogPo/w, literature IC50
recombinant human HSD1 = target: T4, recombinant human HSD1 (Homo sapiens, UniProt P14061); assay: HSD1 inhibition by HPLC with tritium labeled estrone/estradiol; format: biochemical; settings: 1 μM
T4 construct: made in house; host or cells: Sf9 insect cells
T4 sequence (P14061 1-328): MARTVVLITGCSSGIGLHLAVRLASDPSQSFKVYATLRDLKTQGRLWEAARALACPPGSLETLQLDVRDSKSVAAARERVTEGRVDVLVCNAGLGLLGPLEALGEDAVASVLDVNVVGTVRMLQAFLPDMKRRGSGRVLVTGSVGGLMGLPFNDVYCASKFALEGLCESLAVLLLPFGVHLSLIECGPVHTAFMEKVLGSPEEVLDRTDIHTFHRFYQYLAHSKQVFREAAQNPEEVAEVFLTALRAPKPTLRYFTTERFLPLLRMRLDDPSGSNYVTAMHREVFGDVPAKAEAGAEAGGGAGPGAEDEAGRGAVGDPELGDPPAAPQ

human CYP1A2 = target: T5, human CYP1A2 (Homo sapiens, UniProt P05177); assay: CYP1A2 inhibition, 7-ethoxyresorufin fluorescence assay; format: biochemical
T5 construct: purchased Corning Inc
T5 sequence (P05177 1-516): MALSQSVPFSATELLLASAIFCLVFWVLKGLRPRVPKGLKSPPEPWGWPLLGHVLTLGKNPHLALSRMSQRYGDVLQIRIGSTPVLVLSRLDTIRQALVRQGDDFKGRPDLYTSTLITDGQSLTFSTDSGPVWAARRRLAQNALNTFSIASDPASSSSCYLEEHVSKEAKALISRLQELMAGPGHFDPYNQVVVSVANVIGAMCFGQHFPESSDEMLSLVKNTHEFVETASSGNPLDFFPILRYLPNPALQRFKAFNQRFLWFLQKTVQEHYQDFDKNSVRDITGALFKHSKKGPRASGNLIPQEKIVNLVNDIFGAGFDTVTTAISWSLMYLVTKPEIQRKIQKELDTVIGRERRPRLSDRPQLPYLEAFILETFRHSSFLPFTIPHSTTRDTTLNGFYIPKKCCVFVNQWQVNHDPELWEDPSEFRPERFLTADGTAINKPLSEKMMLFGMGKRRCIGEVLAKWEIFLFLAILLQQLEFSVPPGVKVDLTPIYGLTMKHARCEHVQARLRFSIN
Protocol: Inhibition of CYP1A2 activity was determined with commercial heterologously expressed human CYP1A2 enzyme (Corning Inc., Corning, NY, USA) as described earlier (Korhonen et al., [2005]). The metabolic activity was not in the scope of this particular study. The assay was adapted to the 96-well plate format. In each well, a 150 μL incubation volume contained 100 mM Tris-HCl buffer (pH 7.4), 4.2 mM MgCl2,1 μM 7-ethoxyresorufin, 0.5 pmol of cDNA expressed CYP1A2, […] inhibitor, and a NADPH-generating system. All inhibitors were dissolved in ethanol, and the final concentration of ethanol was 2% in all incubations. The reaction was initiated by adding the NADPH-regenerating system after a 10 min preincubation at 37°C, and after a 20 min incubation, the reaction was terminated by the addition of 110 μL of 80% acetonitrile/20% 0.5 M Tris base. The formed fluorescence was measured with a Victor2 plate counter (Perkin-Elmer Life Sciences Wallac, Turku, Finland) at 570 nm excitation and 616 nm emission.

MAO-A inhibition % (MAO-A)	MAO-B inhibition % (MAO-B [1])	ER inhibition % (ERα)	inhibition at 1 µM (recombinant human HSD1)	inhibition at 100 µM (MAO-A)	inhibition at 10 µM (MAO-B [1])	LiPE (MAO-B [1])	IC50 (MAO-B [1])	IC50 (human CYP1A2)	Compound	further results
56.76%	22.93%	0.00%	–	–	–	–	–	–	O=c1oc2c(O)cccc2cc1-c1cccc(O)c1 [derivative 43]	–
–	–	–	–	–	–	–	–	–	COc1ccc(-c2c(O)c3ccccc3oc2=O)cc1Cl [CHEMBL1934675]	LiPE (MAO-B [2]): 1.85
–	–	–	–	–	–	–	–	–	Cc1ccc2oc(=O)c(-c3ccc(O)cc3)cc2c1 [CHEMBL577099]	LiPE (MAO-B [2]): 4.06
0.00%	25.74%	18.58%	–	–	–	–	–	–	O=c1oc2cc(O)ccc2cc1-c1cccc(O)c1 [derivative 40]	ER activity (in words) (ERα): prominent
43.38%	21.38%	0.13%	–	–	–	–	–	–	O=c1oc2cc(O)cc(O)c2cc1-c1ccc(O)cc1 [derivative 45]	–
–	–	–	0%	2.48%	85.9%	3.30	1950 nM	570 µM	COc1ccc(-c2cc3ccc(OC(C)=O)cc3oc2=O)cc1 [derivative 13, 3-(4-methoxyphenyl)-2-oxo-2H-chromen-7-yl acetate]	–
0.00%	10.23%	0.66%	–	–	–	–	–	–	O=c1oc2c(Cl)cc(Cl)cc2cc1-c1ccc(F)cc1 [derivative 49]	HSD1 inhibition % (recombinant human HSD1): 1.30%
48.86%	23.30%	0.44%	–	–	–	–	–	–	O=c1oc2cc(O)cc(O)c2cc1-c1cccc(O)c1 [derivative 42]	–
–	–	–	0%	22%	100%	3.52	~141 nM and 141 nM	280 µM	CC(=O)Oc1ccc2cc(-c3ccc(OC(F)(F)F)cc3)c(=O)oc2c1 [derivative 3, 2-oxo-3-(4-(trifluoromethoxy)phenyl)-2H-chromen-7-yl acetate]	–
22.39%	22.52%	96.18%	–	–	–	–	–	–	O=c1oc2c(O)cccc2cc1-c1ccc(O)cc1 [derivative 44]	ER activity (in words) (ERα): prominent
–	–	–	0%	10.1%	97.6%	3.25	400 nM	15 µM	COc1ccc(-c2cc3cc(OC)ccc3oc2=O)cc1 [derivative 10, 6-methoxy-3-(4-methoxyphenyl)-2H-chromen-2-one]	–
–	–	–	0%	0%	91%	2.69	888 nM	46 µM	CC(=O)Oc1ccc(-c2cc3cc(Cl)cc(Cl)c3oc2=O)cc1F [derivative 7, 4-(6,8-dichloro-2-oxo-2H-chromen-3-yl)-2-fluorophenyl acetate]	–
